Results published in patent publication EP2908837B1, “COMPOSITIONS FOR DRUG DELIVERY” (priority 2012, dated 2014).
Non-standard residues stand in square brackets, D forms with d. Residues, ends and D or L forms follow the SMILES beside them.

assay: In vitro plasma stability (half-life) in freshly collected mouse blood, LC-MS/MS; format: in vitro ADME; conditions: up to 8 hours at 37°C in Swiss (CD-I) mouse blood, analyte quantified in the plasma fraction
Procedure: In vitro plasma stability (i.e. half-life or t1/2) of the peptides of the invention was also assessed. Briefly, each peptide was incubated up to 8 hours at 37°C in freshly collected Swiss (CD-I) mouse blood and the analyte was quantified in the plasma fraction at several time-points using a liquid chromatography-tandem mass spectrometry (LC-MS/MS) analytical method. […]

| SMILES | half-life [h] |
| --- | --- |
| CSCC[C@@H]1NC(=O)[C@H](N)CSSC(C)(C)[C@@H](C(=O)O)NC(=O)CNC(=O)[C@H](CCCNC(=N)N)NC(=O)[C@H](CC(C)C)NC(=O)[C@H](CCCNC(=N)N)NC(=O)[C@@H]2CSCN2C1=O [SEQ ID NO: 1, (D)-Cys-Met-Thz-Arg-Leu-Arg-Gly-Pen] | 4 |
| CSCC[C@@H]1NC(=O)[C@H](N)CSSC(C)(C)[C@@H](C(=O)O)NC(=O)CN(C)C(=O)[C@H](CCCNC(=N)N)NC(=O)[C@H](CC(C)C)NC(=O)[C@H](CCCNC(=N)N)NC(=O)[C@@H]2CSCN2C1=O [SEQ ID NO: 2, (D)-Cys-Met-Thz-Arg-Leu-Arg-Sar-Pen] | 4.9 |
| CSCC[C@@H]1NC(=O)[C@H](N)CSSC[C@@H](C(=O)O)NC(=O)CN(C)C(=O)[C@H](CCCNC(=N)N)NC(=O)[C@H](CC(C)C)NC(=O)[C@H](CCCNC(=N)N)NC(=O)[C@@H]2CCCCN2C1=O [SEQ ID NO: 3, (D)-Cys-Met-Pip-Arg-Leu-Arg-Sar-Cys] | 5.9 |
| CSCC[C@@H]1NC(=O)[C@H](N)CSSC(C)(C)[C@@H](C(=O)O)NC(=O)CNC(=O)[C@H](CCCNC(=N)N)NC(=O)[C@H](CC(C)C)NC(=O)[C@H](CCCNC(=N)N)NC(=O)[C@@H]2CCCCN2C1=O [SEQ ID NO: 4, (D)-Cys-Met-Pip-Arg-Leu-Arg-Gly-Pen] | 3.9 |
| CSCC[C@@H]1NC(=O)[C@H](N)CSSC(C)(C)[C@@H](C(=O)O)NC(=O)CN(C)C(=O)[C@H](CCCNC(=N)N)NC(=O)[C@H](CC(C)C)NC(=O)[C@H](CCCNC(=N)N)NC(=O)[C@@H]2CCCCN2C1=O [SEQ ID NO: 5, (D)-Cys-Met-Pip-Arg-Leu-Arg-Sar-Pen] | 9.2 |

assay: In situ brain perfusion, cerebral transfer coefficient (Kin); format: in vivo, mouse; conditions: in situ brain perfusion 2-5 min, perfusate flow rate 2 ml/min
Procedure: The in situ brain perfusion technique (in adult male OF1 mouse) is used to illustrate passage in the brain across the BBB.
Radioactive peptides with high specific radioactivity (RAS, up to 100 Ci/mmol) are prepared by a strategy of acylation of the N-term amine function by tritiated propionic (or propanoic) anhydride or tritiated N-propionyl-succinimide (NPS).
The techniques briefly summarized below were developed previously to study the distribution in the brain of active substances and, in particular, the role of the BBB and, more particularly, of LDLR in the penetration of these molecules in the brain. In situ brain perfusion techniques are among the most technically demanding and the most difficult to perform in the mouse. […]
This strategy of in situ brain perfusion normally carried out in the rat was adapted for mouse (Dagenais et al., 2000, J Cereb Blood Flow Metab., 20(2), 381-6) in order to broaden its application for evaluating the parameters of transport kinetics at the BBB and the blood-retinal barrier, and this also in transgenic and KO mutant mice for the receptors, enzymes or transporters of active substances. […] The duration of the fixed flow-rate perfusion is monitored. […]

| SMILES | Kin (transfer coefficient) |
| --- | --- |
| CC(C)C[C@H](NC(=O)[C@H](Cc1ccccc1)NC(=O)CNC(=O)[C@@H](C)NC(=O)[C@@H](N)Cc1ccc(O)cc1)C(=O)N[C@@H](CCCNC(=N)N)C(=O)O [Dalargine] (H-Y[dA]GFLR-OH) | ≈ 0.9 x 10^-4 ml/s/g |
